According to US12139499B2, “Heteroaryl compounds for treating Huntington's disease” (PTC THERAPEUTICS, INC., priority 2018, dated 2024):

Test system: Endogenous Huntingtin Protein
Assay: Endogenous Huntingtin Protein Assay (ELISA-based MSD electrochemiluminescence)
Assay type: cell-based
Conditions: Table 1
Experimental: Compounds of Formula (I) or Formula (II) were tested using the Meso Scale Discovery (MSD) Assay provided in International Application No. PCT/US2016/066042, filed on Dec. 11, 2016 and claiming priority to U.S. Provisional Application 62/265,652 filed on Dec. 10, 2015, the entire contents of which are incorporated herein by reference.
The Endogenous Huntingtin Protein assay used in Example 1 was developed using the ELISA-based MSD electrochemiluminescence assay platform.
Endogenous Huntingtin Protein Assay
Meso Scale Discovery (MSD) 96-well or 384-well plates were coated overnight at 4° C. with MW1 (expanded polyglutamine) or MAB2166 monoclonal antibody (for capture) at a concentration of 1 μg/mL in PBS (30 μL per well). Plates were then washed three times with 300 μL wash buffer (0.05% Tween-20 in PBS) and blocked (100 μL blocking buffer; 5% BSA in PBS) for 4-5 hours at room temperature with rotational shaking and then washed three times with wash buffer.
Samples (25 μL) were transferred to the antibody-coated MSD plate and incubated overnight at 4° C. After removal of the lysates, the plate was washed three times with wash buffer, and 25 μL of #5656S (Cell signaling; rabbit monoclonal) secondary antibody (diluted to 0.25 μg/mL in 0.05% Tween-20 in blocking buffer) was added to each well and incubated with shaking for 1 Hour at room temperature. Following incubation with the secondary antibody, the wells were rinsed with wash buffer after which 25 μL of goat anti-rabbit SULFO TAG secondary detection antibody (required aspect of the MSD system) (diluted to 0.25 μg/mL in 0.05% Tween-20 in blocking buffer) was added to each well and incubated with shaking for 1 hour at room temperature. After rinsing three times with wash buffer, 150 μL of read buffer T with surfactant (MSD) were added to each empty well, and the plate was imaged on a SI 6000 imager (MSD) according to manufacturers' instructions provided for 96- or 384-well plates.

SMILES	IC50
CN(c1nc2ccc(-c3cc(C#N)c4nn(C)cc4c3)cc2s1)C1CC(C)(C)NC(C)(C)C1 [Compound 62, 2-methyl-5-{2-[methyl(2,2,6,6-tetramethylpiperidin-4-yl)amino]-1,3-benzothiazol-6-yl}-2H-indazole-7-carbonitrile]	≤ 100 nM
Cc1cn2cc(-c3ccc4nc(N(C)C5CC(C)(C)NC(C)(C)C5)sc4c3)ccc2n1 [Compound 63, N-methyl-6-(2-methylimidazo[1,2-a]pyridin-6-yl)-N-(2,2,6,6-tetramethylpiperidin-4-yl)-1,3-benzothiazol-2-amine]	100 to 500 nM
Cn1cc2cc(-c3ccc4nc(OC5CC(C)(C)NC(C)(C)C5)sc4c3)ccc2n1 [Compound 64, 6-(2-methyl-2H-indazol-5-yl)-2-[(2,2,6,6-tetramethylpiperidin-4-yl)oxy]-1,3-benzothiazole]	1000 to 3000 nM
CC1CC(c2nc3ccc(-c4ccc5nn(C)cc5c4)cc3s2)=CCN1 (stereo not shown) [Compound 65, 6-(2-methyl-2H-indazol-5-yl)-2-(2-methyl-1,2,3,6-tetrahydropyridin-4-yl)-1,3-benzothiazole]	100 to 500 nM
Cc1cc(-c2ccc3nc(N(C)C4CCNC(C)C4)sc3c2)cc2cn(C)nc12 (stereo not shown) [Compound 66, 6-(2,7-dimethyl-2H-indazol-5-yl)-N-methyl-N-(2-methylpiperidin-4-yl)-1,3-benzothiazol-2-amine]	≤ 100 nM
CC1C=C(c2nc3ccc(-c4ccc5nn(C)cc5c4)cc3s2)CCN1 (stereo not shown) [Compound 67, 6-(2-methyl-2H-indazol-5-yl)-2-(6-methyl-1,2,3,6-tetrahydropyridin-4-yl)-1,3-benzothiazole]	1000 to 3000 nM
Cc1cc(-c2ccc3nc(OC4CC(C)(C)NC(C)(C)C4)sc3c2)cc2cn(C)nc12 [Compound 68, 6-(2,7-dimethyl-2H-indazol-5-yl)-2-[(2,2,6,6-tetramethylpiperidin-4-yl)oxy]-1,3-benzothiazole]	1000 to 3000 nM
Cc1nc2ccc(-c3cc(F)c4nc(C5CCNCC5)sc4c3)cc2o1 [Compound 70, 6-[4-fluoro-2-(piperidin-4-yl)-1,3-benzothiazol-6-yl]-2-methyl-1,3-benzoxazole]	≤ 100 nM
Cc1cn2cc(-c3cc(F)c4nc(C5=CCNCC5)sc4c3)cc(C)c2n1 [Compound 71, 6-(2,8-dimethylimidazo[1,2-a]pyridin-6-yl)-4-fluoro-2-(1,2,3,6-tetrahydropyridin-4-yl)-1,3-benzothiazole]	100 to 500 nM
Cn1cc2cc(-c3cc(F)c4nc(C5=CCNCC5)sc4c3)ccc2n1 [Compound 72, 4-fluoro-6-(2-methyl-2H-indazol-5-yl)-2-(1,2,3,6-tetrahydropyridin-4-yl)-1,3-benzothiazole]	100 to 500 nM
CN(c1nc2ccc(-c3cc(C4CC4)c4nn(C)cc4c3)cc2s1)C1CC(C)(C)NC(C)(C)C1 [Compound 80, 6-(7-cyclopropyl-2-methyl-2H-indazol-5-yl)-N-methyl-N-(2,2,6,6-tetramethylpiperidin-4-yl)-1,3-benzothiazol-2-amine]	1000 to 3000 nM
CC1CC(N(C)c2nc3ccc(-c4ccc5nn(C)cc5c4)cc3s2)CCN1 (stereo not shown) [Compound 81, N-methyl-6-(2-methyl-2H-indazol-5-yl)-N-(2-methylpiperidin-4-yl)-1,3-benzothiazol-2-amine]	100 to 500 nM
CN(c1nc2cnc(-c3cc(F)c4nn(C)cc4c3)cc2s1)C1CC(C)(C)NC(C)(C)C1 [Compound 86, 6-(7-fluoro-2-methyl-2H-indazol-5-yl)-N-methyl-N-(2,2,6,6-tetramethylpiperidin-4-yl)[1,3]thiazolo[4,5-c]pyridin-2-amine]	≤ 100 nM
Cc1cn2cc(-c3cc4sc(N(C)C5CC(C)(C)NC(C)(C)C5)nc4cn3)ccc2n1 [Compound 87, N-methyl-6-(2-methylimidazo[1,2-a]pyridin-6-yl)-N-(2,2,6,6-tetramethylpiperidin-4-yl)[1,3]thiazolo[4,5-c]pyridin-2-amine]	≤ 100 nM
Cc1cn2cc(-c3cc4sc(N(C)C5CC(C)(C)NC(C)(C)C5)nc4cn3)cc(C)c2n1 [Compound 88, 6-(2,8-dimethylimidazo[1,2-a]pyridin-6-yl)-N-methyl-N-(2,2,6,6-tetramethylpiperidin-4-yl)[1,3]thiazolo[4,5-c]pyridin-2-amine]	≤ 100 nM
Cc1cn2nc(-c3cc4sc(N(C)C5CC(C)(C)NC(C)(C)C5)nc4cn3)ccc2n1 [Compound 89, N-methyl-6-(2-methylimidazo[1,2-b]pyridazin-6-yl)-N-(2,2,6,6-tetramethylpiperidin-4-yl)[1,3]thiazolo[4,5-c]pyridin-2-amine]	500 to 1000 nM
Cc1cn2nc(-c3cc4sc(N(C)C5CC(C)(C)NC(C)(C)C5)nc4cn3)cc(C)c2n1 [Compound 90, 6-(2,8-dimethylimidazo[1,2-b]pyridazin-6-yl)-N-methyl-N-(2,2,6,6-tetramethylpiperidin-4-yl)[1,3]thiazolo[4,5-c]pyridin-2-amine]	100 to 500 nM

More lines, now with the values ahead:

IC50	SMILES
≤ 100 nM	Cn1cc2cc(-c3cc(F)c4nc(C5CCNCC5)sc4c3)ccc2n1 [Compound 73, 4-fluoro-6-(2-methyl-2H-indazol-5-yl)-2-(piperidin-4-yl)-1,3-benzothiazole]
≤ 100 nM	Cn1cc2cc(-c3cc4sc(C5CCNCC5)nc4cn3)cc(C#N)c2n1 [Compound 74, 2-methyl-5-[2-(piperidin-4-yl)[1,3]thiazolo[4,5-c]pyridin-6-yl]-2H-indazole-7-carbonitrile]
100 to 500 nM	CCc1cc(-c2cc3sc(C4CCNCC4)nc3cn2)cc2cn(C)nc12 [Compound 75, 6-(7-ethyl-2-methyl-2H-indazol-5-yl)-2-(piperidin-4-yl)[1,3]thiazolo[4,5-c]pyridine]
100 to 500 nM	Cn1cc2cc(-c3cc4sc(C5CCNCC5)nc4cn3)cc(F)c2n1 [Compound 76, 6-(7-fluoro-2-methyl-2H-indazol-5-yl)-2-(piperidin-4-yl)[1,3]thiazolo[4,5-c]pyridine]
100 to 500 nM	Cc1cn2cc(-c3cc4sc(C5CCNCC5)nc4cn3)ccc2n1 [Compound 77, 6-(2-methylimidazo[1,2-a]pyridin-6-yl)-2-(piperidin-4-yl)[1,3]thiazolo[4,5-c]pyridine]
500 to 1000 nM	Fc1cc(-c2ccc3[nH]ncc3n2)cc2sc(C3CCNCC3)nc12 [Compound 78, 5-[4-fluoro-2-(piperidin-4-yl)-1,3-benzothiazol-6-yl]-1H-pyrazolo[4,3-b]pyridine]
≤ 100 nM	Cn1cc2nc(-c3cc(F)c4nc(C5CCNCC5)sc4c3)ccc2n1 [Compound 79, 5-[4-fluoro-2-(piperidin-4-yl)-1,3-benzothiazol-6-yl]-2-methyl-2H-pyrazolo[4,3-b]pyridine]
100 to 500 nM	Cc1cn2cc(-c3ccc4nc(C5CCNCC5)sc4c3)ccc2n1 [Compound 82, 6-(2-methylimidazo[1,2-a]pyridin-6-yl)-2-(piperidin-4-yl)-1,3-benzothiazole]
≤ 100 nM	Cn1cc2cc(-c3ccc4nc(C5CCNCC5)sc4c3)cc(F)c2n1 [Compound 83, 6-(7-fluoro-2-methyl-2H-indazol-5-yl)-2-(piperidin-4-yl)-1,3-benzothiazole]
≤ 100 nM	Cn1cc2cc(-c3ccc4nc(C5CCNCC5)sc4c3)cc(C#N)c2n1 [Compound 84, 2-methyl-5-[2-(piperidin-4-yl)-1,3-benzothiazol-6-yl]-2H-indazole-7-carbonitrile]
100 to 500 nM	CCc1cc(-c2ccc3nc(C4CCNCC4)sc3c2)cc2cn(C)nc12 [Compound 85, 6-(7-ethyl-2-methyl-2H-indazol-5-yl)-2-(piperidin-4-yl)-1,3-benzothiazole]
